Laboratory results: US6331555A, “Treatment of platelet derived growth factor related disorders such as cancers” (priority 1999, dated 2001)

Assays:
PDGF-R = PDGF-R autophosphorylation, T98G glioblastoma cells; assay type: cell-based, human; settings: 200, 500, 1000 mM; 20 ng/ml PDGF-BB
Protocol: Proteins were then separated by SDS-polyacrylamide gel electrophoresis (PAGE). Proteins containing phosphorylated tyrosine were identified by western blotting with an anti-phosphotyrosine antibody. The level of phosphorylated tyrosine was determined by quantitating the amount of bound anti-phosphotyrosine. Quantitation was carried out by peak area integration using a Molecular Dynamics Computing Densitometer (Model 300S), and Image Quant v3.0 software (Molecule Dynamics). Data were expressed as relative peak.intensity (phosphorylation of a receptor divided by the total amount of phosphorylated tyrosine).
T98G cells were plated in MCDB105 medium containing 2% FBS and incubated for 24 hours at 37° C. […] The cells were then treated with ligand for 10 minutes (20 ng/ml PDGF-BB or 50 ng/ml EGF). The cells were lysed and the level of phosphorylated receptor was quantitated as described in Example 1.

spleen cells = test: Normal immune function in naive mice; assay type: in vivo, mouse
Excerpt: At the indicated times, animals were sacrificed, and the spleens were aseptically removed and placed into sterile medium. Spleens were processed into single cell suspensions by grinding between sterile frosted glass microscope slides. After a single wash to remove tissue debris, the spleen cells were resuspended in a hypotonic ammonium chloride buffer to lyse erythrocytes. Lymphocytes were washed and resuspended to the appropriate concentrations in complete medium, consisting of RPMI plus 10% heat-inactivated FBS, 2 mM glutamine, 50 μM β-mercaptoethanol, and penicillin-streptomycin. The responses of the lymphocytes were examined in the following assays according to accepted procedures (Current Protocols in Immunology. Coligan, J. E., Kruisbeek, A. M., Margulies, D. H., Shevach, E. M., Strober, W. (eds.) John Wiley and Sons, Inc., 1992).
The T-cell mitogen, ConA, and the T-cell independent B-cell mitogen, LPS, were added to 96-well round-bottom wells at the indicated concentrations. Lymphocytes from normal, vehicle-dosed, and drug-dosed animals were added at a final concentration of 2.5×10^5 /well. Cultures were usually set up in triplicate or quadruplicate. The plates were incubated at 37° C. in a humidified atmosphere containing 5% CO2 for the indicated times. Supernatants (approximately 100 μL) were carefully removed from the wells and stored at -80° C. for lymphokine and immunoglobulin analyses. To measure proliferation of the lymphocytes, 1 μCi of ^3 H-thymidine was added to each well, and the plates were incubated for 6 hr. The cultures were harvested onto glass fiber filters, and the incorporated radioactivity was quantitated by liquid scintillation counting (Betaplate, Wallac).
Lymphocytes from normal, vehicle-dosed, and drug-dosed animals were plated at 2.5×10^5 /well in round-bottom 96-well plates. Stimulator cells were then added at the same cell concentration. The stimulator cells consisted of syngeneic or allogeneic lymphocytes which had been treated with 50 μg/mL of mitomycin C for 30 min prior to the assay. The plates were incubated for 3 to 4 days, at which time supernatants were harvested and the cultures were pulsed as described for the mitogen assays.
Supernatants from mitogen and MLR cultures were assayed for IL-2 and IL-6 content by the ability to support the growth of factor-dependent cell lines. HT-2 cells (10^4 /well, IL-2-dependent) and 7TD1 cells (2×10^3 /well, IL-6-dependent) were plated in 96-well flat-bottom plates, in 50 μL/well. Supernatants were added in 50 μL/well, and the plates were incubated overnight (HT-2) or four days (7TD1). Cellular proliferation was determined in the MTT colorimetric assay (Appendix 3.1).
Flat bottom 96-well EIA plates were coated with goat anti-mouse Ig antibodies (Southern Biotechnology) overnight at 4° C. The plates were blocked by the addition of PBS+1% BSA. After washing with PBS, supernatants from murine mitogen and MLR cultures were added and incubated at room temperature for 1 hr. The plates were washed with PBS, then HRP-labeled goat anti-mouse Ig antibodies were added and incubated at room temperature for 1 hr. The plates were washed and developed by the addition of substrate (ABTS).
The animals were sacrificed and their spleen cells were assayed in vitro for responses to ConA (a T-cell mitogen), LPS (a T-cell independent B-cell mitogen), and alloantigens (C3H/HeJ spleen cells) as described in Appendix 5. The IL-2, IL-6, Ig content and cellular proliferation were measured after 48 hr (mitogens) or 72 hr (alloantigens).

C6 cells = test: Intracerebral C6 tumor, athymic rats, survival; assay type: in vivo, rat; settings: IC C6, athymic rats
Protocol: FIG. 5. In two separate experiments, C6 cells (5×10^4 cells in 20 μL [Expt #1] or 5 μL [Expt #2]) were implanted into the cerebrum of athymic rats. […] V=vehicle control. n=7 to 8 animals per group. * P=0.0002; ** P=0.0003 compared to vehicle control.
For the rat IC model, rats (Wistar, Sprague Dawley, Fisher 344, or athymic R/Nu; approximately 200 g) were anesthetized by an IP injection of 100 mg/kg Ketaset (ketamine hydrochloride; Aveco, Fort Dodge, Iowa) and 5 mg/kg Rompun (xylazine, 2% solution; Bayer, Germany). After onset of anesthesia, the scalp was shaved and the animal was oriented in a stereotaxic apparatus (Stoelting, Wood Dale, Ill.). The skin at the incision site was cleaned 3 times with alternating swabs of 70% ethanol and 10% Povidone-Iodine. A median 1.0-1.5 cm incision was made in the scalp using a sterile surgical blade. The skin was detached slightly and pulled to the sides to expose the sutures on the skull surface. A dental drill (Stoelting, Wood Dale, Ill.) was used to make a small (1-2 mm diameter) burrhole in the skull approximately 1 mm anterior and 2 mm lateral to the bregma. The cell suspension was drawn into a 50 μL Hamilton syringe fitted with a 23 or 25 ga standard bevel needle. […]

RR-SRC peptide substrate = settings: cited from earlier work

Cc1oncc1C(=O)Nc1ccc(C(F)(F)F)cc1 [Compound A10, 5-methylisoxazole-4 carboxylic acid-(4-trifluromethyl)-anilide]
autophosphorylation of PDGF-R by PDGF (PDGF-R): inhibited autophosphorylation of PDGF-R by PDGF | 3H-thymidine uptake (spleen cells; Allo, d7, vs vehicle): 0 | IL-2 production (spleen cells; Allo, d7, vs vehicle): 0 | IL-6 production (spleen cells; Allo, d7, vs vehicle): 0 | Ig production (spleen cells; Allo, d7, vs vehicle): 0 | 3H-thymidine uptake (spleen cells; Allo, d21, vs vehicle): 0 | IL-2 production (spleen cells; Allo, d21, vs vehicle): 0 | IL-6 production (spleen cells; Allo, d21, vs vehicle): 0 | Ig production (spleen cells; Allo, d21, vs vehicle): 0 | 3H-thymidine uptake (spleen cells; ConA, d7, vs vehicle): 0 | IL-2 production (spleen cells; ConA, d7, vs vehicle): 0 | IL-6 production (spleen cells; ConA, d7, vs vehicle): ++ | Ig production (spleen cells; ConA, d7, vs vehicle): 0 | 3H-thymidine uptake (spleen cells; ConA, d21, vs vehicle): 0 | IL-2 production (spleen cells; ConA, d21, vs vehicle): 0 | IL-6 production (spleen cells; ConA, d21, vs vehicle): 0 | Ig production (spleen cells; ConA, d21, vs vehicle): 0 | 3H-thymidine uptake (spleen cells; LPS, d7, vs vehicle): 0 | IL-2 production (spleen cells; LPS, d7, vs vehicle): 0 | IL-6 production (spleen cells; LPS, d7, vs vehicle): 0 | Ig production (spleen cells; LPS, d7, vs vehicle): + | 3H-thymidine uptake (spleen cells; LPS, d21, vs vehicle): 0 | IL-2 production (spleen cells; LPS, d21, vs vehicle): 0 | IL-6 production (spleen cells; LPS, d21, vs vehicle): 0 | Ig production (spleen cells; LPS, d21, vs vehicle): +/- | survival (C6 cells): slight but significant positive effect on the survival | tyrosine phosphorylation of the RR-SRC peptide substrate (RR-SRC peptide substrate): dose dependently, inhibited
